Laboratory results taken from ChEMBL document CHEMBL4270525, “SAR studies on truxillic acid mono esters as a new class of antinociceptive agents targeting fatty acid binding proteins” (Eur J Med Chem, 2018).

Assays:
[1] = molecular target: Fatty acid-binding protein, brain (Homo sapiens, UniProt O15540); experiment: Displacement of ANS from recombinant human N-terminal His-tagged FABP7 expressed in Escherichia coli BL21(DE3) after 20 mins by fluorescence assay
[2] = molecular target: Fatty acid-binding protein 5 (Homo sapiens, UniProt Q01469); experiment: Displacement of DAUDA from recombinant human N-terminal His-tagged FABP5 expressed in Escherichia coli BL21(DE3) after 20 mins by fluorescence assay
Chain of Fatty acid-binding protein 5 (Q01469 whole entry): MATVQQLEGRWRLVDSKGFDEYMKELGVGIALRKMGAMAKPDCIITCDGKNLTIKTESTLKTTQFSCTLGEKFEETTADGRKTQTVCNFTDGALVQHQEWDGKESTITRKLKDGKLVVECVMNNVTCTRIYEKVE

[3] = molecular target: Fatty acid-binding protein, heart (Homo sapiens, UniProt P05413); experiment: Displacement of DAUDA from recombinant human N-terminal His-tagged FABP3 expressed in Escherichia coli BL21(DE3) after 20 mins by fluorescence assay
Chain of Fatty acid-binding protein, heart (P05413 whole entry): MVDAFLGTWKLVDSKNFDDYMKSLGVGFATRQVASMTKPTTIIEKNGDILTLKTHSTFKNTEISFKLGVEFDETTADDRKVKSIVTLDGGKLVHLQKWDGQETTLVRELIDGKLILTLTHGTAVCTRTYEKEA

[4] = Colloidal aggregation of the compound at 20 uM by dynamic light scattering method; type: physicochemical
[5] = Half life in C57BL/6 mouse at 20 mg/kg, ip by LC-MS analysis; type: ADME, organism-based; conditions: in vivo

Chain of Fatty acid-binding protein, brain (O15540 whole entry): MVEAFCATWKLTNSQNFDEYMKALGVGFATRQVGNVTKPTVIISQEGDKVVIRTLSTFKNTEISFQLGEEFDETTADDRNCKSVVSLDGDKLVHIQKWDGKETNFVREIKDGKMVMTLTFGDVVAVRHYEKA

SMILES	Ki ([1]; read-out: Ki) [µM]	Ki ([2]; read-out: Ki) [µM]	Ki ([3]; read-out: Ki) [µM]	other results
O=C(O)[C@H]1[C@H](c2ccccc2)[C@@H](C(=O)Nc2nc(-c3ccc4c(c3)CCCC4)cs2)[C@H]1c1ccccc1	> 10	> 10	> 10	–
COc1cc([C@H]2[C@H](C(=O)O)[C@H](c3ccc(O)c(OC)c3)[C@H]2C(=O)O)ccc1O	> 10	> 10	> 10	–
COc1ccccc1[C@H]1[C@H](C(=O)O)[C@H](c2ccccc2OC)[C@H]1C(=O)Oc1cccc2ncccc12	> 10	3.93	> 10	–
O=C(O)[C@H]1[C@H](c2ccccc2)[C@H](C(=O)Nc2nc(-c3ccc4c(c3)CCCC4)cs2)[C@H]1c1ccccc1	> 10	> 10	> 10	–
O=C(O)[C@H]1[C@H](c2ccccc2)[C@H](C(=O)Oc2ccccc2-c2ccccc2)[C@H]1c1ccccc1	0.35	–	–	–
O=C(O)[C@H]1[C@H](c2ccccc2[N+](=O)[O-])[C@H](C(=O)Oc2cccc3ccccc23)[C@H]1c1ccccc1[N+](=O)[O-]	> 10	> 10	> 10	–
O=C(O)[C@H]1[C@H](c2ccccc2)[C@H](C(=O)O[C@@H]2CCCC[C@H]2c2ccccc2)[C@H]1c1ccccc1	–	–	–	Activity [4]: Not Active
COc1ccc([C@H]2[C@H](C(=O)O)[C@H](c3ccc(OC)c(OC)c3)[C@H]2C(=O)O)cc1OC	> 10	> 10	> 10	–
O=C(O)[C@H]1[C@H](c2ccccc2[N+](=O)[O-])[C@H](C(=O)O[C@@H]2CCCC[C@H]2c2ccccc2)[C@H]1c1ccccc1[N+](=O)[O-]	> 10	> 10	> 10	–
O=C(Oc1cccc(-c2ccccc2)c1)[C@H]1[C@H](c2ccccc2)[C@H](C(=O)Oc2cccc(-c3ccccc3)c2)[C@H]1c1ccccc1	–	–	–	Ki [1]: Nd(Insoluble); Ki [2]: Nd(Insoluble); Ki [3]: Nd(Insoluble)
O=C(O)[C@H]1[C@H](c2ccccc2)[C@H](C(=O)OCC(F)(F)F)[C@H]1c1ccccc1	–	> 10	> 10	–
O=C(O)[C@H]1[C@H](c2c(Cl)cccc2Cl)[C@H](C(=O)O[C@@H]2CCCC[C@H]2c2ccccc2)[C@H]1c1c(Cl)cccc1Cl	–	1.23	> 10	–
O=C(O)[C@H]1[C@H](c2ccc(O)cc2)[C@H](C(=O)Oc2cccc3ccccc23)[C@H]1c1ccc(O)cc1 (racemic)	–	> 10	2.3	–

More lines, main results first:

Ki ([1]; read-out: Ki) [µM]	Ki ([2]; read-out: Ki) [µM]	Ki ([3]; read-out: Ki) [µM]	SMILES	other results
> 10	> 10	> 10	COc1ccc(COC(=O)[C@H]2[C@H](c3ccccc3)[C@H](C(=O)OCc3ccc(OC)cc3)[C@H]2c2ccccc2)cc1	–
> 10	> 10	> 10	O=C(O)[C@H]1[C@H](c2ccccc2)[C@H](C(=O)O)[C@H]1c1ccccc1	–
> 10	> 10	> 10	O=C(OCC1CCOCC1)[C@H]1[C@H](c2ccccc2)[C@H](C(=O)OCC2CCOCC2)[C@H]1c1ccccc1	–
–	–	2.82	O=C(O)[C@H]1[C@H](c2ccccc2)[C@H](C(=O)Oc2cccc3ccccc23)[C@H]1c1ccccc1	–
> 10	–	> 10	O=C(O)[C@H]1[C@H](c2ccccc2Br)[C@H](C(=O)O[C@@H]2CCCC[C@H]2c2ccccc2)[C@H]1c1ccccc1Br	–
0.4	–	0.4	COc1ccccc1[C@H]1[C@H](C(=O)O)[C@H](c2ccccc2OC)[C@H]1C(=O)O[C@@H]1CCCC[C@H]1c1ccccc1	–
> 10	> 10	> 10	O=C(OCc1ccccc1)[C@H]1[C@H](c2ccccc2)[C@H](C(=O)OCc2ccccc2)[C@H]1c1ccccc1	–
> 10	> 10	> 10	O=C(OCc1ccc(F)cc1)[C@H]1[C@H](c2ccccc2)[C@H](C(=O)OCc2ccc(F)cc2)[C@H]1c1ccccc1	–
–	–	3.26	O=C(O)[C@H]1[C@@H](c2ccccc2)[C@H](C(=O)Oc2cccc3ccccc23)[C@@H]1c1ccccc1	–
0.5	–	> 10	O=C(O)[C@H]1[C@H](c2ccccc2)[C@H](C(=O)OC2CCCCC2)[C@H]1c1ccccc1	–
–	3.81	> 10	O=C(O)[C@H]1[C@H](c2ccccc2)[C@H](C(=O)OCc2ccccc2)[C@H]1c1ccccc1	–
0.54	–	2.98	O=C(O)[C@H]1[C@H](c2ccccc2)[C@H](C(=O)Oc2cc(Cl)c(Cl)cc2Cl)[C@H]1c1ccccc1	–
0.78	0.89	> 10	C#Cc1cccc(OC(=O)[C@H]2[C@@H](c3ccccc3)[C@H](C(=O)O)[C@@H]2c2ccccc2)c1 (racemic)	–
> 10	1.7	> 10	O=C(O)[C@H]1[C@H](c2ccccc2Cl)[C@H](C(=O)O[C@@H]2CCCC[C@H]2c2ccccc2)[C@H]1c1ccccc1Cl (racemic)	–
0.45	–	2.7	O=C(O)C1C(c2ccccc2)C(C(=O)Oc2cccc3ccccc23)C1c1ccccc1 (racemic)	half-life [5]: 3 h; Activity [4]: Not Active
